This is an account of results in ChEMBL document CHEMBL1122993, “3-Alkyl-3-hydroxyglutaric acids: a new class of hypocholesterolemic HMG CoA reductase inhibitors. 1” (J Med Chem, 1985).

In series [1] the target is T1, 3-hydroxy-3-methylglutaryl-coenzyme A reductase (Rattus norvegicus) (UniProt P51639).
T1 sequence (whole entry): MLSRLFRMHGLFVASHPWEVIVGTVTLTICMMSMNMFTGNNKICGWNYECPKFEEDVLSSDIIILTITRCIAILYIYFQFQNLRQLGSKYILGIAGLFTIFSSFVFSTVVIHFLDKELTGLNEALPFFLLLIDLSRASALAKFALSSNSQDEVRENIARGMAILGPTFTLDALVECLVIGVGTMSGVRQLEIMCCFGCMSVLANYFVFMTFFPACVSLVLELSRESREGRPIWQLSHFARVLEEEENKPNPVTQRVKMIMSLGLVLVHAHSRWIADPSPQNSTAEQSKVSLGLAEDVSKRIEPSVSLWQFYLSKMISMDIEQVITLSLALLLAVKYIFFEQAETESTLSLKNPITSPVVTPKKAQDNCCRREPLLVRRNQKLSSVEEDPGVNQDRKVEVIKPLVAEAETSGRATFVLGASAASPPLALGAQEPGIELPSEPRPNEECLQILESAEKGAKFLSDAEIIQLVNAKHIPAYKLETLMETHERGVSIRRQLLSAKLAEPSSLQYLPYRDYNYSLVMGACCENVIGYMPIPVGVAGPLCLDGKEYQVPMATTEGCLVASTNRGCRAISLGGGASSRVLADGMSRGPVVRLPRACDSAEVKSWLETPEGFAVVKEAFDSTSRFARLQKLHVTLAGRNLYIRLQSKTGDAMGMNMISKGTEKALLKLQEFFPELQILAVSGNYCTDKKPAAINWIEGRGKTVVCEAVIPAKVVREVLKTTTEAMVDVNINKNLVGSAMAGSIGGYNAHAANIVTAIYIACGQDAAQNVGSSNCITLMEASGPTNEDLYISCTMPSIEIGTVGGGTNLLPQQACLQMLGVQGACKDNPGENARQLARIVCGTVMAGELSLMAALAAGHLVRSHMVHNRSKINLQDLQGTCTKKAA
As to the kind of experiment: In vitro inhibition of rat liver HMG-CoA reductase at concentration of 10e-3 M.

In series [2] the target is T2, 3-hydroxy-3-methylglutaryl-coenzyme A reductase (Rattus norvegicus, UniProt P51639).
T2 sequence (P51639 whole entry): T1 sequence (whole entry)
The experiment in a line: Inhibition of HMG-CoA reductase from rat liver.

Series [3] has as its system Rattus norvegicus. The experiment in a line: Percent reduction of Serum Cholesterol in Triton-treated rat at dose 200 mg/kg by intragastric administration (p<0.01). Format: functional.
Series [4] concerns Rattus norvegicus. The experiment in a line: Percent reduction of Serum Cholesterol in Triton-treated rat at dose 100 mg/kg by intragastric administration (p<0.01). The format is functional.
Series [5] concerns Rattus norvegicus. The experiment in a line: Percent reduction of Serum Cholesterol in Triton-treated rat at dose 300 mg/kg by intragastric administration (p<0.01). Format: functional.
Series [6] concerns Rattus norvegicus. As to the kind of experiment: Percent reduction of HMGR activity in diazasterol-treated rat at dose 20 mg/kg by intragastric administration (p<0.05). Format: functional.
Series [7] concerns Rattus norvegicus. The experiment in a line: Percent reduction of HMGR activity in diazasterol-treated rat at dose 50 mg/kg by intragastric administration (p<0.05). Format: functional.
In series [8] the test system is Rattus norvegicus. The experiment in a line: Percent reduction of HMGR activity in diazasterol-treated rat at dose 100 mg/kg by intragastric administration (p<0.05). Format: functional.
The subject of series [9] is Rattus norvegicus. As to the kind of experiment: Percent reduction of HMGR activity in diazasterol-treated rat at dose 10 mg/kg by intragastric administration. Format: functional.
Series [10] concerns Rattus norvegicus. The experiment in a line: Percent reduction of Serum Cholesterol in Triton-treated rat at dose 80 mg/kg by intragastric administration. The format is functional.
For series [11], the system named is Rattus norvegicus. The experiment in a line: Percent reduction of Serum Cholesterol in Triton-treated rat at dose 50 mg/kg by intragastric administration. Format: functional.
Substrate in series [12]: CCCCCCCCCCCCCCCC(O)(CC(=O)O)CC(=O)O
Description: Competitive inhibition of HMG-CoA reductase

One may read the inhibition as the share of the control response that was lost under treatment. High values mean a response far below the control, low ones a response near the control. With `COC(=O)CC(C)(O)CC(N)=O` (stereo not given), the inhibition in [1] was determined as 0%.

For the molecule `CC1(O)CC(=O)NC(=O)C1`, in series [1], the inhibition turned out to be 50%.

For `CC(C)C(O)(CC(=O)O)CC(=O)O`, the inhibition in [1] amounted to 10%.

In general, IC50 refers to the concentration that gives 50% inhibition. A low value points to inhibition by little substance. Take `CCCCCCCCCCCCCCCCCCCC(O)(CC(=O)O)CC(=O)O`: in series [1], the inhibition was 86%. Moreover, the IC50 in series [2] stood at 350 µM.

On to `CCCCCCCCCCCCCCCC(O)(CCO)CCO`, for which, in series [1], the inhibition is 0%.

In the case of `CCCCCCCCCCCCCCCC(O)(CC(=O)O)CC(=O)O`, the Reduction in the series with Rattus norvegicus [3] came to 17%; with Rattus norvegicus [4], 4%; with Rattus norvegicus [5] it was 22%; with Rattus norvegicus [6], 27%; in the series with Rattus norvegicus [7], 31%; in the series with Rattus norvegicus [8], 40%. In addition, the inhibition in series [1] stood at 99%. For the same molecule, in series [2], the IC50 was 50 µM.

Consider `CC1(O)CC(=O)OC(=O)C1`, for which the inhibition in [1] worked out at 0%.

Consider `CCCC(O)(CC(=O)O)CC(=O)O`, for which, in series [1], the inhibition is 37%.

The molecule `CC(O)(CC(=O)O)CC(=O)O` had an inhibition in series [1] of 0%.

Turning to `CC[C@H](C)C(=O)O[C@H]1CCC=C2C=C[C@H](C)[C@H](CC[C@@H]3C[C@@H](O)CC(=O)O3)[C@H]21` [MEVASTATIN], the Reduction in the series on Rattus norvegicus [9] turned out to be 60%; with Rattus norvegicus [10], 28%; in the series on Rattus norvegicus [11], 17%.

Molecule `CCCCCCCCCCC(O)(CCO)CCO` registered an inhibition in series [1] of 0%.

Consider `CCCCCCCCCCCCCCCC(O)(CC(=O)OCC)CC(=O)OCC`, for which the Reduction in the series with Rattus norvegicus [3] amounted to 3%.

Consider `CCCCCCCCCCCCCCC/C(=C\C(=O)O)CC(=O)O`, for which the inhibition in series [1] amounted to 0%.

In [1], `CCCCCCC(O)(CC(=O)O)CC(=O)O` registered an inhibition of 5%.

In turn, `CCCCCCCCCCCCCCCC1(OC(C)=O)CC(=O)OC(=O)C1` gave an inhibition in series [1] of 9%.

In the case of `CCCCCCCCCCC1(O)CCOC(=O)C1` (stereo not given), in series [1], the inhibition amounted to 57%.

`CCOC(=O)CC(C)(O)CC(=O)OCC` had an inhibition in series [1] of 0%.

Consider `CCCCCCCCCCCCCCCC(O)(CC(=O)O)CC(=O)OCCN(C)C` (stereo not given), for which, in series [1], the inhibition came out at 0%.

Molecule `CCCCCCCCCCC(O)(CC(=O)OCC)CC(=O)OCC` displayed an inhibition in series [1] of 0%.

For the molecule `CCC(O)(CC(=O)O)CC(=O)O`, in [1], the inhibition amounted to 29%.

For `CCCCCCCCCCCCCCCC(O)(CC(=O)OC)CC(=O)OC`, the figures for the Reduction in the series on Rattus norvegicus [3], in the series on Rattus norvegicus [4] and in the series on Rattus norvegicus [5] were 4%, 4% and 2%, respectively. In series [1], this molecule came in with an inhibition of 1%.

B1: 3-hydroxy-3-methylglutaryl-coenzyme A reductase (Rattus norvegicus), P51639 (protein)
chain: T1 sequence (whole entry)
The term Km denotes the concentration of substrate that gives half-maximal velocity. As for B1, the Km in series [12] is 8 µM.
